Values of other authors in patent publication US20110189283A1, “APPETISING MEDICAMENTS FOR ORAL ADMINISTRATION IN SOLID FORM FOR PREVENTION AND/OR TREATMENT OF CARDIAC INSUFFICIENCY IN ANIMALS” (VIRBAC, priority 2008, published 2011).

Experiments:
[1] = administered during or shortly after feeding
[2] = test system: phosphodiesterase type III; conditions: after oral administration

dose administered found in the feces (dogs) | dose administered found in the urine (dogs) | time to state of equilibrium (multiple oral administrations) | accumulation (multiple oral administrations of 2 mg per kg for 10 consecutive days) | effect of simultaneous taking of foods on bioavailability (oral) | absorption versus amount administered (oral administration of 2 to 4 mg/kg) | metabolism by the liver (to 7α-thiomethylspironolactone and canrenone, dogs) | effect of feeding on bioavailability [1] | Structure (SMILES) | duration of positive inotropic effects [2]
70% | 20% | 2 days | no accumulation is observed | considerably increases | increases linearly | rapidly and completely metabolized | – | CC(=O)S[C@@H]1CC2=CC(=O)CC[C@]2(C)[C@H]2CC[C@@]3(C)[C@@H](CC[C@@]34CCC(=O)O4)[C@H]12 [spironolactone] | –
– | – | – | – | – | – | – | considerably reduced | COc1ccc(-c2nc3ccc(C4=NNC(=O)CC4C)cc3[nH]2)cc1 (stereo not drawn) [pimobendan, 4,5-dihydro-6-[2-(4-methoxyphenyl)-1H-benzimidazol-5-yl]-5-methyl-3(2H)-pyridazinone] | 8 h
